{
  "source": "patent US20260265229A1",
  "about": "“Small Molecule Modulators of IL-17A, Methods of Making and Methods of Using Thereof” (Ascletis Pharma (China) Co., Limited, priority 2023, published 2026)",
  "data": [
    {"target": "T1, IL-17A (Homo sapiens, UniProt Q16552)", "T1 construct": "purchased R&D 7955-IL", "T1 sequence (Q16552 24-155)": "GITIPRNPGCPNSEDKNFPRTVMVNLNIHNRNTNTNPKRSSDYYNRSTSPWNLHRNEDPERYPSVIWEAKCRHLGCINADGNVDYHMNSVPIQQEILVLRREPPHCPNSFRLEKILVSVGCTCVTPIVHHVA", "assay": "HEK-Blue IL-17 cell assay (SEAP reporter, rhIL-17A/A stimulation)", "type": "cell-based", "conditions": "HEK-Blue IL-17 cells with rhIL-17A/A, 20 hours at 37° C., absorbance at 405 nm", "experimental": "1. The test Compounds were 3-fold serial diluted from 10 mM for 10 doses in DMSO.\n2. Prepare Reference Compounds (IL-17A-Inhibitor-1) were 3-fold serial diluted from 1 mM for 10 doses in DMSO.\n3. Prepare 1000× Positive control (1 mM IL-17A-Inhibitor-1) and 1000× vehicle control (100% DMSO).\n• a) Cells were cultured as the HEK-Blue™ IL-17 technical data sheet recommended. HEK-Blue IL-17 cells were assayed in the exponential growth phase. • b) Aspirate growth medium and rinse cells twice with PBS to remove phenol red. • c) Resuspend cells in test medium to a proper concentration. • d) Only cells with viability greater than 90% were used for assays. • e) Transfer 25nl of compound dilutions into 384-well assay plates using Echo655; • f) Seed 25 ul of HEK-Blue IL-17 cells at 8,000 cells/well into 384-well plate with rhIL-17A/A. • g) Cells were incubated for 20 hours at 37° C. under 5% CO2 atmosphere. • h) Transfer 2 ul of cells supernatant into per well of 384-well assay plates. • i) Add 20 ul of PNPP substrate. • j) Measure the Absorbance at 405 nm on Envision 2105 plate reader.\nRLU signal (LUMempd) is calculated for each well. % Inhibition is calculated as follow: […]\nSignalave_pc: The average signal for the positive controls across the plate.\nSignalave_vc: The average signal for negative controls across the plate.\nCalculate IC50 and Plot effect-dose curve of cmpds:\nCalculate IC50 by fitting % Inhibition values and log of compound concentrations to nonlinear regression (dose response−variable slope) with Graphpad 8.0.", "units": {"IC50": "nM"}, "values": [
      {"smiles": "COC(=O)N1C[C@H](c2ccc(NC(=O)[C@@H](NC(=O)c3ccnn3C(C)C)C3CCCCCC3)cc2)[C@H](C(=O)N2CC(F)(F)C2)C1", "note": "[Example 1, methyl (3S,4S)-3-(4-((S)-2-cycloheptyl-2-(1-isopropyl-1H-pyrazole-5-carboxamido)acetamido)phenyl)-4-(3,3-difluoroazetidine-1-carbonyl)pyrrolidine-1-carboxylate]", "IC50": 15.3},
      {"smiles": "COC(=O)N1C[C@H](C(=O)N2CC(F)(F)C2)[C@@H](c2ccc(NC(=O)[C@@H](NC(=O)c3nonc3C)C3CCC(F)(F)CC3)cc2)C1", "note": "[Example 56]", "IC50": 1450},
      {"smiles": "COC(=O)N1CC(C(=O)N2CC(F)(F)C2)=C(c2ccc3cnc([C@@H](NC(=O)c4ccnn4C(C)C)C4CCC(F)(F)CC4)nc3c2)C1", "note": "[Example 46]", "IC50": 6040},
      {"smiles": "COC(=O)N1C[C@H](C(=O)N2CC(F)(F)C(F)(F)C2)[C@@H](c2ccc(NC(=O)[C@@H](NC(=O)c3ccnn3C(C)C)C3CCCCCC3)cc2)C1", "note": "[Example 57]", "IC50": 46.8},
      {"smiles": "CC(=O)N1C[C@H](C(=O)NCC(C)(F)F)[C@@H](c2ccc(NC(=O)[C@@H](NC(=O)c3ccnn3C(C)C)C3CCCCCC3)cc2)C1", "note": "[Example 52]", "IC50": 103},
      {"smiles": "CC(=O)N1C[C@H](C(=O)N(C)CC(F)(F)F)[C@@H](c2ccc(NC(=O)[C@@H](NC(=O)c3ccnn3C(C)C)C3CCCCCC3)cc2)C1", "note": "[Example 68]", "IC50": 48.6},
      {"smiles": "CC(C)n1nccc1C(=O)N[C@H](c1nc2c(F)cc(C3=C(C(=O)N4CC(F)(F)C4)CN(C(=O)OCc4ccccc4)C3)cc2[nH]1)C1CCCCCC1", "note": "[Example 50]", "IC50": 420},
      {"smiles": "CC(=O)N1CC(C(=O)N2CC(F)(F)C2)C(c2cc(F)c3nc([C@@H](NC(=O)c4ccnn4C(C)C)C4CCCCCC4)[nH]c3c2)C1", "note": "(stereo partly drawn) [Example 51]", "IC50": 118},
      {"smiles": "CC(=O)N1C[C@H](c2ccc(NC(=O)[C@@H](NC(=O)c3ccnn3C(C)C)C3CCCCCC3)cc2)[C@H](C(=O)N2CC(F)(F)C2)C1", "note": "[Example 6]", "IC50": 69},
      {"smiles": "CC(=O)N1C[C@H](C(=O)N2CC(F)(F)C(F)(F)C2)[C@@H](c2ccc(NC(=O)[C@@H](NC(=O)c3ccnn3C(C)C)C3CCCCCC3)cc2)C1", "note": "[Example 54]", "IC50": 28.6},
      {"smiles": "CC(=O)N1CC(c2ccc(NC(=O)[C@@H](NC(=O)c3ccnn3C(C)C)C3CCCCCC3)cc2)[C@H](C(=O)N2CC(F)(F)C(F)(F)C2)C1", "note": "(stereo partly drawn) [Cis-62]", "IC50": 39.6},
      {"smiles": "CC(C)n1nccc1C(=O)N[C@H](C(=O)Nc1ccc([C@H]2CN(C(=O)CCC(F)(F)F)C[C@@H]2C(=O)N2CC(F)(F)C(F)(F)C2)cc1)C1CCCCCC1", "note": "[Example 59]", "IC50": 143},
      {"smiles": "COC(=O)N1CC(C(=O)N2CC(F)(F)C2)C(c2cc(F)c3nc([C@@H](NC(=O)c4ccnn4C(C)C)C4CCCCCC4)[nH]c3c2)C1", "note": "(stereo partly drawn) [Example 53]", "IC50": 532},
      {"smiles": "CC(=O)N1C[C@H](c2ccc(NC(=O)[C@@H](NC(=O)c3ccnn3C(C)C)C3CCCCCC3)cc2)[C@H](C(=O)NCC(F)(F)F)C1", "note": "[Example 66]", "IC50": 44.4},
      {"smiles": "COC(=O)N1C[C@H](C(=O)N2CC(F)(F)C(F)(F)C2)[C@@H](c2ccc(NC(=O)[C@@H](NC(=O)c3ccnn3C(C)C)C3CCCCCC3)cc2F)C1", "note": "[Example 61]", "IC50": 66.8},
      {"smiles": "CC(=O)N1CC(c2ccc(NC(=O)[C@@H](NC(=O)c3ccnn3C(C)C)C(C3CC3)C3CC3)cc2)[C@@H](C(=O)N2CC(F)(F)C(F)(F)C2)C1", "note": "(stereo partly drawn) [Example 63]", "IC50": 132},
      {"smiles": "CC(C)n1nccc1C(=O)N[C@H](C(=O)Nc1ccc([C@H]2CN(C(=O)N(C)C)C[C@@H]2C(=O)N2CC(F)(F)C(F)(F)C2)cc1)C1CCCCCC1", "note": "[Example 58]", "IC50": 39.3},
      {"smiles": "COC(=O)N1C[C@H](C(=O)N2CC(F)(F)C2)[C@@H](c2ccc(NC(=O)[C@@H](NC(=O)c3ccnn3C(C)C)C3CCC(F)(F)CC3)cc2)C1", "note": "[Example 55]", "IC50": 944},
      {"smiles": "CC(=O)N1C[C@H](c2ccc(NC(=O)[C@@H](NC(=O)c3ccnn3C(C)C)C3CCCCCC3)cc2)[C@H](C(=O)N2CC(F)(F)C(F)(F)C2)C1", "note": "[Example 64]", "IC50": 11.5},
      {"smiles": "CC(=O)N1C[C@H](C(=O)N2CC(F)(F)C(F)(F)C2)[C@H](c2ccc(NC(=O)[C@@H](NC(=O)c3ccnn3C(C)C)C3CCCCCC3)cc2)C1", "note": "[Example 65]", "IC50": 57.2},
      {"smiles": "CC(=O)N1C[C@H](c2ccc(NC(=O)[C@@H](NC(=O)c3ccnn3C(C)C)C3CCCCCC3)c(F)c2)[C@H](C(=O)N2CC(F)(F)C(F)(F)C2)C1", "note": "[Example 67]", "IC50": 31.4},
      {"smiles": "CC(=O)N1C[C@H](C(=O)N2CC(F)(F)C(F)(F)C2)[C@@H](c2ccc(NC(=O)[C@@H](NC(=O)c3ccnn3C(C)C)C3CCC(F)(F)CC3)cc2)C1", "note": "[Example 60]", "IC50": 315},
      {"smiles": "COC(=O)N1C[C@H](C(=O)N2CC(F)(F)C2)[C@@H](c2ccc(NC(=O)[C@@H](NC(=O)c3ccnn3C(C)C)C3CCCCCC3)cc2)C1", "note": "[Example 2]", "IC50": 110},
      {"smiles": "CC(=O)N1C[C@H](C(=O)N2CCN(C)CC2)[C@@H](c2ccc(NC(=O)[C@@H](NC(=O)c3ccnn3C(C)C)C3CCCCCC3)cc2)C1", "note": "[Example 49]", "IC50": 1860}
    ]}
  ]
}
